These results are taken from PMC10967822, “Antimicrobial Indole-3-Carboxamido-Polyamine Conjugates Target Bacterial Membranes and Are Antibiotic Potentiators” (Biomolecules, 2024).

What is called MIC is the smallest concentration in the dilution series that meets the test's criterion for growth inhibition. For orientation: IC50 means the concentration that gives 50% inhibition. A higher IC50 goes with weaker potency in that assay.

A value given as a limit tells only on which side of the number the result lay.

One data set has as its system A. baumannii ATCC 19606. As to the kind of experiment: MIC, broth microdilution (CO-ADD), A. baumannii. It counts as cell-based, Acinetobacter baumannii. The settings on record: Acinetobacter baumannii, ATCC19606, top dose 32 µg/mL.
The test system of data set [1] is P. aeruginosa ATCC 27853. Nature of the data set: MIC, broth dilution, P. aeruginosa. The class given is cell-based, Pseudomonas aeruginosa. The note with it: Pseudomonas aeruginosa, ATCC27853; P. aeruginosa ATCC 27853, 18 h; read-out: MIC Pa.
A further data set deals with MRSA ATCC 43300. As to the kind of experiment: MIC, broth microdilution (CO-ADD), MRSA. The note with it: Staphylococcus aureus; MRSA ATCC 43300; top dose 32 µg/mL; read-out: MIC MRSA. The class given is cell-based, methicillin-resistant S. aureus.
In data set [2] the test system is E. coli ATCC 25922. As to the kind of experiment: MIC, broth dilution, E. coli. The class given is cell-based, Escherichia coli. The note with it: Escherichia coli, ATCC25922; E. coli ATCC 25922, 18 h. (In general: In broth dilution the organism is exposed to a series of concentrations in liquid medium.)
Data set [3] is described as follows: Cytotoxicity assay (resazurin). The class given is cell-based. The settings on record: human, HEK293 cells, mean n = 2. (In general: The colour change of resazurin is a common sign of viable cells or microbes.)
For another data set, the system named is C. albicans ATCC 90028. Nature of the data set: Antifungal MIC (CO-ADD), C. albicans. It counts as cell-based. The settings on record: Candida albicans, ATCC90028, top dose 32 µg/mL. On the procedure:
(§1) For the antifungal assay, fungi strains were cultured for 3 days on YPD agar at 30 °C. A yeast suspension of 1 × 10^6 to 5 × 10^6 CFU/mL was prepared from five colonies. These stock suspensions were diluted with a yeast nitrogen base (YNB) (Becton Dickinson, 233520, New South Wales, Australia) broth to a final concentration of 2.5 × 10^3 CFU/mL. […] The plates were covered and incubated at 35 °C for 36 h without shaking. C. albicans MICs were determined by measuring the absorbance at OD530. For C. neoformans, resazurin was added at a 0.006% final concentration to each well and incubated for a further 3 h before the MICs were determined by measuring the absorbance at OD570–600. […] Fluconazole was used as a positive fungal inhibitor standard for C. albicans and C. neoformans. […] The quality control (QC) of the assays was determined by the antimicrobial controls and the Z′-factor (using positive and negative controls).

A further data set deals with S. aureus ATCC 25923. Nature of the data set: MIC, broth dilution, S. aureus. The class given is cell-based, Staphylococcus aureus. The note with it: Staphylococcus aureus, ATCC25923; S. aureus ATCC 25923, 18 h; read-out: MIC Sa.
The subject of data set [4] is K. pneumoniae ATCC 700603. Nature of the data set: MIC, broth microdilution (CO-ADD), K. pneumoniae. The settings on record: top dose 32 µg/mL.
Data set [5] deals with E. coli ATCC 25922. Nature of the data set: Erythromycin potentiation against E. coli. The class given is cell-based, Escherichia coli. The settings on record: erythromycin at 2 µg/mL (2.7 µM); for Erythro/Ec fold-change (intrinsic MIC / combination MIC): E. coli; for Erythro/Ec: concentration required to restore erythromycin activity (combination MIC): mean n = 3. The text has this:
(§2) These measurements were independently repeated in triplicate.

The subject of data set [6] is C. neoformans ATCC 208821. As to the kind of experiment: Antifungal MIC (CO-ADD), C. neoformans. The class given is cell-based. The note with it: Cryptococcus neoformans, ATCC208821, top dose 32 µg/mL. On the procedure:
as §1

The subject of a further data set is human red blood cells. As to the kind of experiment: Hemolytic assay. The class given is cell-based. The note with it: 10% hemolytic activity, mean n = 2. The method, then: Human whole blood was washed three times with three volumes of 0.9% NaCl and then resuspended in the same solution to a concentration of 0.5 × 10^8 cells/mL, as determined by the manual cell count in a Neubauer hemocytometer. The washed cells were then added to the 384-well compound-containing plates for a final volume of 50 μL. After a 10 min shake on a plate shaker, the plates were then incubated for 1 h at 37 °C. After incubation, the plates were centrifuged at 1000× g for 10 min to pellet cells and debris; 25 μL of the supernatant was then transferred to a polystyrene 384-well assay plate. Hemolysis was determined by measuring the supernatant absorbance at […] (OD405). The absorbance was measured using a Tecan M1000 Pro monochromator plate reader. HC10 and HC50 (concentrations at 10% and 50% hemolysis, respectively) were calculated by a curve fitting the inhibition values vs. log (concentration) using a sigmoidal dose–response function with variable fitting values for the top, bottom, and slope.

In data set [7] the test system is P. aeruginosa ATCC 27853. Nature of the data set: Doxycycline potentiation against P. aeruginosa. The note with it: doxycycline at 2 µg/mL (4.5 µM); for Dox/Pa fold-change (intrinsic MIC / combination MIC): P. aeruginosa ATCC 27853; for Dox/Pa: concentration required to restore doxycycline activity (combination MIC): P. aeruginosa ATCC 27853, mean n = 3. The class given is cell-based, Pseudomonas aeruginosa.
Excerpt: as §2

On to `O=C(NCCCNCCCCCCNCCCNC(=O)c1c[nH]c2ccccc12)c1c[nH]c2ccccc12.O=C(O)C(F)(F)F.O=C(O)C(F)(F)F` [Compound 12b], for which the minimal inhibitory concentration (MIC) in the data set on A. baumannii ATCC 19606 is more than 43 µM; in the data set on P. aeruginosa ATCC 27853 [1], more than 268 µM; in the data set with MRSA ATCC 43300, not above 0.34 µM; against E. coli ATCC 25922 [2] it was 134 µM; against C. albicans ATCC 90028, more than 43 µM; in the data set on S. aureus ATCC 25923 it was 268 µM. Also, the MIC in data set [6] was not above 0.34 µM. Further, the half-maximal inhibitory concentration (IC50) at 20 h in [3] is more than 43 µM. Further, in [4], the “MIC Kp” value was more than 43 µM. For the same compound, the “Erythro/Ec fold-change (intrinsic MIC / combination MIC)” value in the data set with E. coli ATCC 25922 [5] is on record as 4 fold. Moreover, the “Erythro/Ec: concentration required to restore erythromycin activity (combination MIC)” value (shortened to “Erythro/Ec: concentration required”) with E. coli ATCC 25922 [5] amounted to 33.6 µM. Moreover, the “Hemolysis HC10” value in the data set with human red blood cells was more than 43 µM. The “Dox/Pa fold-change (intrinsic MIC / combination MIC)” value with P. aeruginosa ATCC 27853 [7] is listed as more than 8 fold. The “Dox/Pa: concentration required to restore doxycycline activity (combination MIC)” value (from here on “Dox/Pa: concentration required”) in the data set on P. aeruginosa ATCC 27853 [7] was found to be 33.6 µM.

For `O=C(NCCCNCCCCCCCNCCCNC(=O)c1c[nH]c2ccccc12)c1c[nH]c2ccccc12.O=C(O)C(F)(F)F.O=C(O)C(F)(F)F` [Compound 12c], the MIC with A. baumannii ATCC 19606 is more than 42 µM; in the data set on P. aeruginosa ATCC 27853 [1] it was more than 263 µM; in the data set on MRSA ATCC 43300, not above 0.33 µM; with E. coli ATCC 25922 [2], 65.9 µM; against C. albicans ATCC 90028, more than 42 µM; with S. aureus ATCC 25923 it was 132 µM. The same compound yielded a minimal inhibitory concentration (MIC) in data set [6] not above 0.33 µM. This compound also gave an IC50 at 20 h in data set [3] of more than 42 µM. Besides, the “MIC Kp” value in data set [4] is more than 42 µM. Also, the “Erythro/Ec fold-change (intrinsic MIC / combination MIC)” value in the data set on E. coli ATCC 25922 [5] amounted to 1 fold. The “Erythro/Ec: concentration required” value with E. coli ATCC 25922 [5] amounted to 65.9 µM. For the same compound, the “Hemolysis HC10” value in the data set with human red blood cells was more than 42 µM. In addition, the “Dox/Pa fold-change (intrinsic MIC / combination MIC)” value in the data set on P. aeruginosa ATCC 27853 [7] is on record as more than 4 fold. For the same compound, the “Dox/Pa: concentration required” value in the data set with P. aeruginosa ATCC 27853 [7] was 65.9 µM.

Take `O=C(NCCCNCCCCCCCCNCCCNC(=O)c1c[nH]c2ccccc12)c1c[nH]c2ccccc12.O=C(O)C(F)(F)F.O=C(O)C(F)(F)F` [Compound 12d]: the MIC in the data set with A. baumannii ATCC 19606 is more than 41 µM; in the data set on P. aeruginosa ATCC 27853 [1] it was more than 259 µM; with MRSA ATCC 43300, not above 0.32 µM; in the data set on E. coli ATCC 25922 [2], 32.4 µM; in the data set on C. albicans ATCC 90028, more than 41 µM; in the data set with S. aureus ATCC 25923, 64.7 µM. Besides, in data set [6], the minimal inhibitory concentration (MIC) is not above 0.32 µM. For the same compound, the IC50 at 20 h in data set [3] was more than 41 µM. Besides, the “MIC Kp” value in data set [4] is more than 41 µM. Moreover, the “Hemolysis HC10” value in the data set on human red blood cells is more than 41 µM. Further, the “Dox/Pa fold-change (intrinsic MIC / combination MIC)” value in the data set on P. aeruginosa ATCC 27853 [7] is on record as more than 8 fold. The “Dox/Pa: concentration required” value in the data set on P. aeruginosa ATCC 27853 [7] is given as 32.3 µM.

In the case of `O=C(NCCCNCCCCCCCCCCNCCCNC(=O)c1c[nH]c2ccccc12)c1c[nH]c2ccccc12.O=C(O)C(F)(F)F.O=C(O)C(F)(F)F` [Compound 12e], the MIC in the data set on A. baumannii ATCC 19606 is more than 40 µM; in the data set on P. aeruginosa ATCC 27853 [1], more than 250 µM; in the data set on MRSA ATCC 43300, not above 0.31 µM; with E. coli ATCC 25922 [2], 125 µM; in the data set on C. albicans ATCC 90028, more than 40 µM; in the data set with S. aureus ATCC 25923 it was 31.2 µM. This compound also came in with a minimum inhibitory concentration (MIC) in [6] not above 0.31 µM. In data set [3], this compound gave an IC50 at 20 h of more than 40 µM. Also, the “MIC Kp” value in data set [4] is given as more than 40 µM. Further, the “Erythro/Ec fold-change (intrinsic MIC / combination MIC)” value in the data set on E. coli ATCC 25922 [5] was determined as 2 fold. Besides, the “Erythro/Ec: concentration required” value with E. coli ATCC 25922 [5] was found to be 62.4 µM. The “Hemolysis HC10” value in the data set on human red blood cells is listed as more than 40 µM. For the same compound, the “Dox/Pa fold-change (intrinsic MIC / combination MIC)” value in the data set with P. aeruginosa ATCC 27853 [7] is listed as more than 4 fold. Further, in the data set with P. aeruginosa ATCC 27853 [7], the “Dox/Pa: concentration required” value amounted to 62.4 µM.

Regarding `O=C(NCCCNCCCCCCCCCCCCNCCCNC(=O)c1c[nH]c2ccccc12)c1c[nH]c2ccccc12.O=C(O)C(F)(F)F.O=C(O)C(F)(F)F` [Compound 12f], the MIC in the data set with A. baumannii ATCC 19606 is 4.82 µM; with P. aeruginosa ATCC 27853 [1], 121 µM; in the data set on MRSA ATCC 43300, not above 0.3 µM; with E. coli ATCC 25922 [2], 15.1 µM; in the data set with C. albicans ATCC 90028 it was not above 0.3 µM; in the data set on S. aureus ATCC 25923 it was 3.77 µM. Moreover, the MIC in [6] is not above 0.3 µM. Further, the IC50 at 20 h in data set [3] is more than 39 µM. For the same compound, the “MIC Kp” value in data set [4] is on record as more than 39 µM. Further, in the data set on E. coli ATCC 25922 [5], the “Erythro/Ec fold-change (intrinsic MIC / combination MIC)” value is 2 fold. Also, the “Erythro/Ec: concentration required” value in the data set on E. coli ATCC 25922 [5] turned out to be 7.54 µM. Besides, the “Hemolysis HC10” value in the data set on human red blood cells is listed as more than 39 µM. Moreover, the “Dox/Pa fold-change (intrinsic MIC / combination MIC)” value in the data set on P. aeruginosa ATCC 27853 [7] was 8 fold. Besides, the “Dox/Pa: concentration required” value in the data set with P. aeruginosa ATCC 27853 [7] was determined as 15.1 µM.
